Laboratory results published in ChEMBL document CHEMBL2311538, “Discovery of a class of novel tankyrase inhibitors that bind to both the nicotinamide pocket and the induced pocket” (J Med Chem, 2013).

How the values were obtained:
[1] = biological target: T1, Poly [ADP-ribose] polymerase tankyrase-1 (Homo sapiens, UniProt O95271)
T1 sequence (O95271 whole entry): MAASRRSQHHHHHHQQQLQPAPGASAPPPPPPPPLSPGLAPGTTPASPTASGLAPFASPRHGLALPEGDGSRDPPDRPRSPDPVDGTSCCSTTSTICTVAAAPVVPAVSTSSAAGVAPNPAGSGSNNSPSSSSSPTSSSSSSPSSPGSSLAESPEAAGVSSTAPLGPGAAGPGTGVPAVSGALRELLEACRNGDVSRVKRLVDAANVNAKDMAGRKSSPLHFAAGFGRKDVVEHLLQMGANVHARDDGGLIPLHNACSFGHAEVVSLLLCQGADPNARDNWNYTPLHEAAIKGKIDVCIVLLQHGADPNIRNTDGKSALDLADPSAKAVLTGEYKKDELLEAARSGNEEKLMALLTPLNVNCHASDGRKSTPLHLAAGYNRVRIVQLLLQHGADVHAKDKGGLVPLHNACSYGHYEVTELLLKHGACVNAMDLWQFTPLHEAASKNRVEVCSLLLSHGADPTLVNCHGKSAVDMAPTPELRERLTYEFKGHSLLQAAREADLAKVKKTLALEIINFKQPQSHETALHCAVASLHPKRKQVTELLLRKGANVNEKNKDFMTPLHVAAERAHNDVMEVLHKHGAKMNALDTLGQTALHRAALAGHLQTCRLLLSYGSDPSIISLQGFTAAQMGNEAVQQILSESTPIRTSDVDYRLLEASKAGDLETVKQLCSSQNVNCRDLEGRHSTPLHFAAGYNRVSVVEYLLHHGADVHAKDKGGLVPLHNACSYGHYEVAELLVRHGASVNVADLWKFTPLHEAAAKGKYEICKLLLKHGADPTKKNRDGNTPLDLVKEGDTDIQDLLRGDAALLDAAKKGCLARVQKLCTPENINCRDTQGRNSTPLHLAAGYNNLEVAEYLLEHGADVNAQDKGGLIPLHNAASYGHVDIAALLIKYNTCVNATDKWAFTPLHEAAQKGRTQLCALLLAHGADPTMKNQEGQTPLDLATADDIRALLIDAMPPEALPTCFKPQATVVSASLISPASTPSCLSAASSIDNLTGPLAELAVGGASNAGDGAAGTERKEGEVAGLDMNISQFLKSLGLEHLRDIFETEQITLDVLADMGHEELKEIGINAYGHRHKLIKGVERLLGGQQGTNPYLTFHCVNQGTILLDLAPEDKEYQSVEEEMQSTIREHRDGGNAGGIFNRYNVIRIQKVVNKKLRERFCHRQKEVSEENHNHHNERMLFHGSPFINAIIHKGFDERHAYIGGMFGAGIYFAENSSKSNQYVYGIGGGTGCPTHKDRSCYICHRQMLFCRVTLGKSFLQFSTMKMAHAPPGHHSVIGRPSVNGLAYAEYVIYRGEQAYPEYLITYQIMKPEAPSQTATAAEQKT

[2] = biological target: T2, Poly [ADP-ribose] polymerase tankyrase-2 (Homo sapiens, UniProt Q9H2K2); experiment: Inhibition of N-terminal His6-tagged human TNKS2 (946 to 1162 amino acid residues) after 60 mins by autoparsylation assay
T2 sequence (Q9H2K2 whole entry): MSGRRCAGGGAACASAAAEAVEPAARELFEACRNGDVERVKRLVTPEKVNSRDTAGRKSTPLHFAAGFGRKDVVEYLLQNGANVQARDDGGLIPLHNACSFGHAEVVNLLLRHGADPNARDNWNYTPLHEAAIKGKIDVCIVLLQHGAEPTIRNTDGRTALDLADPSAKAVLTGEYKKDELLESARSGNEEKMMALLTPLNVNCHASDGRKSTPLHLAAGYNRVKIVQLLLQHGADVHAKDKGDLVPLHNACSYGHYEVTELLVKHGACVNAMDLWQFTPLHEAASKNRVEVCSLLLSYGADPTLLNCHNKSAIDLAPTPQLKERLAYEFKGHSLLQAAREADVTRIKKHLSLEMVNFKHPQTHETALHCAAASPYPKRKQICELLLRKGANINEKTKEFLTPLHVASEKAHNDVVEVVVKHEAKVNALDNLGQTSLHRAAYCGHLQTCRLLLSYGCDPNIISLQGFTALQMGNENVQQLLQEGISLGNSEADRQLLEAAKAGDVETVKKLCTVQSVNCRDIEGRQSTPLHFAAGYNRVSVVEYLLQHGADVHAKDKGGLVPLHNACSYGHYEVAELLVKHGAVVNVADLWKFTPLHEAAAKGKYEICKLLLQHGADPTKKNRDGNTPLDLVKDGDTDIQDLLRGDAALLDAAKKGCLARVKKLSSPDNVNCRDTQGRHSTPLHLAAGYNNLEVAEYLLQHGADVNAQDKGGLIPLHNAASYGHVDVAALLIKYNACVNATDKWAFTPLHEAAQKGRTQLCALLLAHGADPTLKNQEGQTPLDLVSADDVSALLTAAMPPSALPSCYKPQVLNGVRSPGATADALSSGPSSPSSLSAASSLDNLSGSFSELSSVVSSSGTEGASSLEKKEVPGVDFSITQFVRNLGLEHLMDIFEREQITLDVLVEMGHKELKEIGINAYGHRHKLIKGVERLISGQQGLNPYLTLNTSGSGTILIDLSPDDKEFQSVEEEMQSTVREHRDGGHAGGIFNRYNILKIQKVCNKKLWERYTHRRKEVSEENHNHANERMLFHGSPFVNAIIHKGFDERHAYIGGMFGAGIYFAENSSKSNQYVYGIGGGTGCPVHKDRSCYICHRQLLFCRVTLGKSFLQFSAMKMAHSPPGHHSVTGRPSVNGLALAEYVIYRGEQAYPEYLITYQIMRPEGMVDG

[3] = biological target: T3, Tankyrase 1/2 (Homo sapiens, UniProt Q9H2K2+O95271); conditions: hek293
T3 sequence (Q9H2K2 whole entry): T2 sequence (Q9H2K2 whole entry)
T3 sequence (O95271 whole entry): T1 sequence (O95271 whole entry)

[4] = biological target: Poly [ADP-ribose] polymerase 2 (Homo sapiens, UniProt Q9UGN5); experiment: Inhibition of PARP2 (unknown origin)
Sequence of Poly [ADP-ribose] polymerase 2 (Q9UGN5 whole entry): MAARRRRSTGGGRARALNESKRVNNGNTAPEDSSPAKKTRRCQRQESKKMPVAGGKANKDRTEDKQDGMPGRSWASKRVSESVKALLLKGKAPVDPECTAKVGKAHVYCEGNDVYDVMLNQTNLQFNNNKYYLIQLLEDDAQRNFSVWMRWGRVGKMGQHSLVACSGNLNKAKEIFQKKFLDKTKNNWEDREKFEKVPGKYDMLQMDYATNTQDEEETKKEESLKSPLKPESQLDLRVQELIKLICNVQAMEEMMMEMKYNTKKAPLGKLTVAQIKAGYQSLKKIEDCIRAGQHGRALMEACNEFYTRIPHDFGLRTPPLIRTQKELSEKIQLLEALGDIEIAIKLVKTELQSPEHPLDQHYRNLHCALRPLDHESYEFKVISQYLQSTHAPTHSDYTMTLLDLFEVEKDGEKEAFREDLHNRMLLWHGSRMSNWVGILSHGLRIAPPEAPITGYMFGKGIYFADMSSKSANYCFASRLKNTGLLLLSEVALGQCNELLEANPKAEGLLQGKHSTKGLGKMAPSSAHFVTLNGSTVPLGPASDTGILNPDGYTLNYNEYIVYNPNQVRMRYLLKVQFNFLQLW

Row | IC50 [1] | IC50 [2] | IC50 [3] | IC50 [4] | SMILES
1 | 192 nM | 36 nM | 163000 nM | – | Cc1ccnc2c(NC(=O)c3ccc(N4C(=O)[C@@H]5[C@H](C4=O)[C@@H]4C=C[C@H]5C4)cc3)cccc12
2 | 8 nM | – | – | 931 nM | COc1ccccc1NC(=O)c1ccc(NC(=O)CCc2nc3ccccc3c(=O)[nH]2)cc1
